In paper PMC11063076, “Structural investigation of Trypanosoma cruzi Akt-like kinase as drug target against Chagas disease” (Scientific Reports, 2024) one finds Kd data, which are given here for one compound.

This assay addresses T1, TcAkt (T. cruzi Akt-like kinase), PH domain (Trypanosoma cruzi, UniProt Q4D6D3).
T1 construct: gene Tc00.1047053509047.110; TcAkt-PH (aa 1–105), C-terminal 6xHis-tag
Nature of the assay: NMR 1H-15N HSQC chemical shift perturbation titration; hetNOE. The class given is binding.

T1 sequence (Q4D6D3 entry or part of it): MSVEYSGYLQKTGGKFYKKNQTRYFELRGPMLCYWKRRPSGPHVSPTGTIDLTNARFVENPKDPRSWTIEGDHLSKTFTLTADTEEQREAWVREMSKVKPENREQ

In general, Kd refers to the free concentration of one partner at which half of the binding sites on the other are occupied at equilibrium, for simple one-to-one binding. Regarding `O=P(O)(O)O[C@H]1[C@H](O)[C@@H](OP(=O)(O)O)[C@H](OP(=O)(O)O)[C@@H](OP(=O)(O)O)[C@H]1O` [Ins(1,3,4,5)P4], the dissociation constant Kd amounted to 40 ± 14 µM.
